The structures appear in SMILES notation. Bounds are passed on as bounds.

Data on 5 compounds can be found in patent US10668156B2, “Active-ingredient-containing solid dispersions based on diethylaminoethyl methacrylate copolymers” (BASF SE, priority 2012, dated 2020).

What all share (assay type): physicochemical
Data set [1] can be described thus: Film method: loading capacity of active ingredient in polymer films, microscopic assessment after storage. The following applies: for Loading capacity, active ingredients in %, Films with Kollicoat ® Smartseal + 6 mol partially neutralized: 6 mol % of basic groups neutralized with adipic acid; for Loading capacity, active ingredients in %, Films with Kollicoat ® Smartseal + 6 mol partially neutralized / Loading capacity, active ingredients in %, Films with Kollicoat ® Smartseal + 8 mol partially neutralized / Loading capacity, active ingredients in %, Films with Eudragit ® EPO / Loading capacity, active ingredients in %, Films with Kollicoat ® Smartseal freeze-dried: no crystals in film, storage 7 days 23° C./54% relative humidity; for Loading capacity, active ingredients in %, Films with Kollicoat ® Smartseal + 8 mol partially neutralized: 8 mol % of basic groups neutralized with succinic acid; for Loading capacity, active ingredients in %, Films with Eudragit ® EPO / Loading capacity, active ingredients in %, Films with Kollicoat ® Smartseal freeze-dried: molecularly disperse dissolved active ingredient. An excerpt: The film method is a process in which a clear solution of the polymer and of the active ingredient is molded to give a thin film which solidifies as a result of the solvent evaporating. Clear solution means that no clouding is evident upon normal inspection. This method is suitable in particular as a screening method in order to determine the loading limits of the solid dispersions in a simple manner. For the screening process, the film can be produced by pouring the solution with the corresponding concentrations of polymer and active ingredient onto glass plates and drawing it out with the help of a blade to give the film. Usually, the films are drawn to layer thicknesses of from 50 to 200 μm. The resulting films are then dried by drawing off the solvent, and solidified as a result. In one or more embodiments, the solvent is removed in vacuo, for example at 1 hPa to 100 hPa. […] Additionally, the removal of the solvent can be effected by the action of temperature.
For the screening process, the films produced are then stored under controlled climatic conditions for defined periods of time—generally 14 days.
The films can then be evaluated by microscope at 40 times magnification. Clear films are a sign of amorphous systems. Cloudy films point to relatively large crystalline fractions.
To prepare the polymer/active ingredient mixture, the substances were weighed in the respective amounts into a 50 ml penicillin bottle.
All of the mixtures were stirred for 24 h on a magnetic stirrer until the constituents had dissolved. After visually assessing the solution (clear solution), the solvent was drawn out on a glass plate using a 120 μm blade. The resulting film was dried for 0.5 h at room temperature of 22+/−2° C. in a fume cupboard and then for 0.5 h in a vacuum drying cabinet at 50° C. and […]. […] Clear films (without active ingredient crystals) indicate molecularly disperse solutions and cloudy films (with active ingredient crystals) indicate crystalline systems.

Data set [2] in a line: Spray-drying: loading capacity assessed by DSC. The note with it: active ingredient in Kollicoat ® Smartseal. A general note: In DSC, transitions show as peaks or steps in heat flow.
Experimental: (§1) To prepare the polymer/active ingredient mixture, the substances were weighed into an appropriate storage vessel. The corresponding amount of solvent was added and the mixture was stirred until the polymer and the active ingredient had completely dissolved. […] The solids fraction of the spraying solution was 20% by weight for all experiments. The spray-drying was carried out on a laboratory scale.
(§2) The liquid to be dried was atomized using a two-material nozzle. A heated gas (here nitrogen) flowing concurrently dries the distributed drops to give solid particles with particle diameters in the range 5-20 μm. In the entry area of the spray drier, the drying gas is supplied tangentially. The dry product particles are separated off in a cyclone.
Data set [3] can be described thus: Spray-drying: loading capacity assessed by XRD. The note with it: active ingredient in Kollicoat ® Smartseal.
Experimental: as §1, §2
Loading capacity of Kollicoat® Smartseal with different active ingredients in the spray-drying. Spray-drying experiments carried out on the laboratory scale: • 1. Itraconazole: Kollicoat® Smartseal with 40+50% (w/w) itraconazole • 2. Fenofibrate: Kollicoat® Smartseal with 40+50% (w/w) fenofibrate • 3.

In the case of `NC(=O)N1c2ccccc2C=Cc2ccccc21` [Carbamazepine], in data set [1], the “Loading capacity, active ingredients in %, Films with Kollicoat ® Smartseal + 6 mol partially neutralized” value turned out to be 30%; the “Loading capacity, active ingredients in %, Films with Kollicoat ® Smartseal + 8 mol partially neutralized” value is on record as 30%; the “Loading capacity, active ingredients in %, Films with Eudragit ® EPO” value is given as less than 10%; the “Loading capacity, active ingredients in %, Films with Kollicoat ® Smartseal freeze-dried” value is given as 20%.
As for `Clc1ccccc1C(c1ccccc1)(c1ccccc1)n1ccnc1` [Clotrimazole], in data set [1], the “Loading capacity, active ingredients in %, Films with Kollicoat ® Smartseal + 6 mol partially neutralized” value is reported as 35%; the “Loading capacity, active ingredients in %, Films with Kollicoat ® Smartseal + 8 mol partially neutralized” value turned out to be 35%; the “Loading capacity, active ingredients in %, Films with Eudragit ® EPO” value was determined as 20%; the “Loading capacity, active ingredients in %, Films with Kollicoat ® Smartseal freeze-dried” value worked out at 35%.
On to `C#C[C@]1(O)CC[C@H]2[C@@H]3CCC4=Cc5oncc5C[C@]4(C)[C@H]3CC[C@@]21C` [Danazol], for which, in data set [1], the “Loading capacity, active ingredients in %, Films with Kollicoat ® Smartseal + 6 mol partially neutralized” value stood at 50%; the “Loading capacity, active ingredients in %, Films with Kollicoat ® Smartseal + 8 mol partially neutralized” value is reported as 50%; the “Loading capacity, active ingredients in %, Films with Eudragit ® EPO” value was less than 10%; the “Loading capacity, active ingredients in %, Films with Kollicoat ® Smartseal freeze-dried” value is reported as 50%.
With `CC(C)Cc1ccc(C(C)C(=O)O)cc1` (stereo not drawn) [Ibuprofen 50, Ibuprofen], in data set [1], the “Loading capacity, active ingredients in %, Films with Kollicoat ® Smartseal + 6 mol partially neutralized” value was 30% and the “Loading capacity, active ingredients in %, Films with Kollicoat ® Smartseal + 8 mol partially neutralized” value is listed as 30%.
In the case of `COc1ccc2cc([C@H](C)C(=O)O)ccc2c1` [Naproxen], the “Loading spray-drying [DSC, %]” value in data set [2] amounted to 50%. In addition, the Loading film method in data set [1] (active ingredient in Kollicoat ® Smartseal) was determined as 50%. Moreover, the “Loading capacity, active ingredients in %, Films with Eudragit ® EPO” value in data set [1] is on record as 30%. The “Loading spray-drying [XRD, %]” value in data set [3] was determined as 50%.
